Columns and labels:
[1] = target: T1, Prostaglandin G/H synthase 1 (Ovis aries, UniProt P05979)
T1 sequence (P05979 whole entry): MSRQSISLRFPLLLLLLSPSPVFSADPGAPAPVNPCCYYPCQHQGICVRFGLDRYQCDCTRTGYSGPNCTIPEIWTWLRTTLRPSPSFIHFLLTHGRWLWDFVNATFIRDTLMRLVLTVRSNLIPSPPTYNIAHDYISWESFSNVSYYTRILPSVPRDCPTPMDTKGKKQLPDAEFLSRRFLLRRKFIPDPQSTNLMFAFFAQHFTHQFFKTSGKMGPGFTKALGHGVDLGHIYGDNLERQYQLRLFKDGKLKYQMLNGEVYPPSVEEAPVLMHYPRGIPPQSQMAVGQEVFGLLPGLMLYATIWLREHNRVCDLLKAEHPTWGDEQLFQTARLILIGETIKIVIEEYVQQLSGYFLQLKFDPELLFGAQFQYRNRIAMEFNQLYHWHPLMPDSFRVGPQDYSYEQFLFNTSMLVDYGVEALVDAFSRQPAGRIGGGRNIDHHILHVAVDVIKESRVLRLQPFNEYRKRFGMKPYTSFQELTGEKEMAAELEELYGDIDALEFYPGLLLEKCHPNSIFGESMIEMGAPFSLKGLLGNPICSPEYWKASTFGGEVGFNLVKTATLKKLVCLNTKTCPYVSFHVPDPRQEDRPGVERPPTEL
Description: Inhibition of ovine COX-1

[2] = target: T2, Prostaglandin G/H synthase 2 (Homo sapiens, UniProt P35354)
T2 sequence (P35354 whole entry): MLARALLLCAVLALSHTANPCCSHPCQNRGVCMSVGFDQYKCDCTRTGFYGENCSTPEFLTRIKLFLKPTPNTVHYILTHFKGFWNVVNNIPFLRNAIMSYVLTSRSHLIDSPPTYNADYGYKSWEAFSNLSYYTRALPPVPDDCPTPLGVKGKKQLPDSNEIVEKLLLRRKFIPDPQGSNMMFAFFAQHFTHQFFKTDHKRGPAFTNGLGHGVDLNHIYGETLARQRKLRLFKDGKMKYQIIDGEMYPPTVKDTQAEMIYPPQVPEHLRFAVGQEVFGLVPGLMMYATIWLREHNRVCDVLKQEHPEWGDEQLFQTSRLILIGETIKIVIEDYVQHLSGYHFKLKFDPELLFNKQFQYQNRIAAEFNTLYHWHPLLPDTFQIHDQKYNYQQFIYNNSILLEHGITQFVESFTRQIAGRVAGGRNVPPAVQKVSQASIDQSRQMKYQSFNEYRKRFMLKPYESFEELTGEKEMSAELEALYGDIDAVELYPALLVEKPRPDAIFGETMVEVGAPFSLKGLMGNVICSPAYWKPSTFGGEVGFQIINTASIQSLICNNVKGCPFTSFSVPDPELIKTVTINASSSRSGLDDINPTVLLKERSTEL

[3] = target: T1, Prostaglandin G/H synthase 1; remark: listed apart in the source
Description: Inhibition of ovine COX-1 by colorimetric assay

[4] = target: T2, Prostaglandin G/H synthase 2; remark: listed apart in the source
Description: Inhibition of human COX-2 by colorimetric assay

[5] = target: T2, Prostaglandin G/H synthase 2; remark: listed apart in the source
Description: Inhibition of recombinant human COX-2 measured after 5 mins by absorbance based analysis

Platelet = assay: cells; type: functional, cell-based; details: Homo sapiens, 2 min
Description: Antiplatelet activity in human platelets assessed as inhibition of arachidonic acid-induced platelet aggregation measured after 2 mins by turbidimetric analysis

in vitro [6] = details: chlorocebus sabaeus, vero
Description: Cytotoxicity against African green monkey Vero cells assessed as cell viability at 100 uM measured after 24 hrs by MTT assay relative to control

in vitro [7] = details: human, erythrocyte
Description: Hemolytic activity in human red blood cells assessed as hemolysis at 100 uM measured after 3 hrs by microplate reader assay relative to control

[8] = target: T1, Prostaglandin G/H synthase 1; remark: listed apart in the source
Description: Inhibition of ovine COX-1 measured after 5 mins by absorbance based analysis

| Structure (SMILES) | IC50 [3] | IC50 [4] | further results |
| --- | --- | --- | --- |
| CCc1onc(-c2ccccc2)c1-c1ccccc1 |  |  | IC50 [1]: 0.05 µM; IC50 [2]: > 1.49 µM |
| Cc1onc(-c2ccc(Cl)o2)c1-c1ccccc1 |  |  | IC50 [2]: > 100 µM |
| Cc1onc(-c2ccccc2)c1-c1ccccc1 |  |  | IC50 [1]: 0.09 µM |
| Cc1onc(-c2ccc(OCc3ccccc3)cc2)c1-c1ccc(OCc2ccccc2)cc1 | > 50 µM | > 50 µM |  |
| CCCCOc1ccc(-c2c(-c3ccc(OC)cc3)noc2C)cc1 | > 50 µM | > 50 µM |  |
| C=CCc1cccc(-c2nc(-c3ccccc3Cl)c(-c3ccccc3Cl)[nH]2)c1OC(=O)COC |  |  | IC50 [5]: > 100 µM |
| O=C(O)Cc1onc(-c2ccc(OCc3ccccc3)cc2)c1-c1ccc(OCc2ccccc2)cc1 | > 50 µM | > 50 µM |  |
| O=C(O)Cc1onc(-c2ccc(Oc3ccccc3)cc2)c1-c1ccc(Oc2ccccc2)cc1 | > 50 µM | > 50 µM |  |
| CCCCOc1ccc(-c2noc(CC(=O)O)c2-c2ccc(OCCCC)cc2)cc1 | 0.053 µM | > 50 µM | IC50 (Platelet): > 100 µM; viability at 24 h, 100 µM (in vitro [6]): > 70%; hemolysis at 3 h, 100 µM (in vitro [7]): 0% |
| CCCCOc1ccc(-c2noc(C)c2-c2ccc(OCCCC)cc2)cc1 | > 50 µM | > 50 µM |  |
| CCOc1ccc(-c2noc(C)c2-c2ccc(OCC)cc2)cc1 | 0.23 µM | > 50 µM | IC50 (Platelet): 1 µM; viability at 24 h, 100 µM (in vitro [6]): > 70%; hemolysis at 3 h, 100 µM (in vitro [7]): 0% |
| CCCOc1ccc(-c2noc(C)c2-c2ccc(OCCC)cc2)cc1 | > 50 µM | > 50 µM |  |
| Cc1onc(-c2ccc(OC(C)(C)C)cc2)c1-c1ccc(OC(C)(C)C)cc1 | > 50 µM | > 50 µM |  |
| CCCOc1ccc(-c2c(-c3ccc(OC)cc3)noc2C)cc1 | 1.3 µM | > 50 µM | hemolysis at 3 h, 100 µM (in vitro [7]): 0% |
| CCOc1ccc(-c2noc(CC(=O)O)c2-c2ccc(OCC)cc2)cc1 | 0.12 µM | > 50 µM | IC50 (Platelet): 0.7 µM; viability at 24 h, 100 µM (in vitro [6]): > 70%; hemolysis at 3 h, 100 µM (in vitro [7]): 0% |
| CCOc1ccc(-c2c(-c3ccc(OC)cc3)noc2CC(=O)O)cc1 | 0.12 µM | > 50 µM | IC50 (Platelet): 29.5 µM; viability at 24 h, 100 µM (in vitro [6]): > 70%; hemolysis at 3 h, 100 µM (in vitro [7]): 0% |

| Structure (SMILES) | IC50 [3] | IC50 [4] | further results |
| --- | --- | --- | --- |
| CCCOc1ccc(-c2c(-c3ccc(OC)cc3)noc2CC(=O)O)cc1 | 0.079 µM | 6.9 µM | IC50 (Platelet): 72.1 µM; viability at 24 h, 100 µM (in vitro [6]): > 70%; hemolysis at 3 h, 100 µM (in vitro [7]): 0% |
| CCCCOc1ccc(-c2c(-c3ccc(OC)cc3)noc2CC(=O)O)cc1 | 0.32 µM | 0.45 µM |  |
| Cc1onc(-c2ccc(Oc3ccccc3)cc2)c1-c1ccc(Oc2ccccc2)cc1 | > 50 µM | > 50 µM |  |
| C=CCc1cccc(-c2nc(-c3ccccc3Cl)c(-c3ccccc3Cl)[nH]2)c1OC(C)=O |  |  | IC50 [5]: > 100 µM; IC50 [8]: > 100 µM |
| CCOc1ccc(-c2c(-c3ccc(OC)cc3)noc2C)cc1 | 0.046 µM | > 50 µM | IC50 (Platelet): 2.5 µM; viability at 24 h, 100 µM (in vitro [6]): 64% |
| CCOc1ccc(N)cc1C(=O)Nc1cccc(C(F)(F)F)c1 |  |  | IC50 [1]: 3.2 µM; IC50 [2]: > 100 µM |
| COc1ccc(-c2noc(C)c2-c2ccc(OCc3ccccc3)cc2)cc1 | > 50 µM | > 50 µM |  |
| COc1ccc(-c2noc(CC(=O)O)c2-c2ccc(OC(C)(C)C)cc2)cc1 | > 50 µM | > 50 µM |  |
| COc1ccc(-c2noc(CC(=O)O)c2-c2ccc(OCc3ccccc3)cc2)cc1 | 0.45 µM | > 50 µM | IC50 (Platelet): > 100 µM; viability at 24 h, 100 µM (in vitro [6]): > 70%; hemolysis at 3 h, 100 µM (in vitro [7]): 0% |
| COc1ccc(-c2noc(C)c2-c2ccc(Oc3ccccc3)cc2)cc1 | > 50 µM | > 50 µM |  |
| CCCOc1ccc(-c2noc(CC(=O)O)c2-c2ccc(OCCC)cc2)cc1 | > 50 µM | 3.6 µM |  |
| CC(C)(C)Oc1ccc(-c2noc(CC(=O)O)c2-c2ccc(OC(C)(C)C)cc2)cc1 | > 50 µM | > 50 µM |  |
| COc1ccc(-c2noc(C)c2-c2ccc(OC(C)(C)C)cc2)cc1 | > 50 µM | > 50 µM |  |
| COc1ccc(-c2noc(CC(=O)O)c2-c2ccc(Oc3ccccc3)cc2)cc1 | > 50 µM | > 50 µM |  |
| CC(=O)Oc1ccccc1C(=O)O [ASPIRIN] |  |  | IC50 (Platelet): 36.2 µM |
| COc1ccc(-c2nc(C(=O)N3CCN(C)CC3)sc2-c2ccc(OC)cc2)cc1 [FR-122047] |  |  | IC50 [1]: 0.028 µM |

Reference: ChEMBL document CHEMBL5543077, “A further pocket or conformational plasticity by mapping COX-1 catalytic site through modified-mofezolac structure-inhibitory activity relationships and their antiplatelet behavior” (Eur J Med Chem, 2024)
